Species on record: Rattus norvegicus
Assay: DrugMatrix - Regimen: Daily Repeat
Format: toxicity, organism-based, Sprague-Dawley
Set-up: regimen Daily Repeat, gender Male, age 6-8 weeks
Settings: in vivo, po, route oral GAVAGE, vehicle .5 % CMC; for ABSOLUTE BASOPHIL / ABSOLUTE EOSINOPHIL / ABSOLUTE LYMPHOCYTE / ABSOLUTE MONOCYTE / ABSOLUTE SEGMENTED NEUTROPHIL / BASOPHIL / EOSINOPHIL / ERYTHROCYTE COUNT / HEMATOCRIT / HEMOGLOBIN / LEUKOCYTE COUNT / LYMPHOCYTE / MEAN CORPUSCULAR HEMOGLOBIN / MEAN CORPUSCULAR HEMOGLOBIN CONCENTRATION / MEAN CORPUSCULAR VOLUME / MONOCYTE / NEUTROPHIL / NUCLEATED RED BLOOD CELLS / PLATELET COUNT: tissue Blood; for ALANINE AMINOTRANSFERASE / ALBUMIN / ALKALINE PHOSPHATASE / ASPARTATE AMINOTRANSFERASE / BLOOD UREA NITROGEN / CARBON DIOXIDE / CHLORIDE / CHOLESTEROL / CREATINE PHOSPHOKINASE / CREATININE / GLUCOSE / LACTATE DEHYDROGENASE / LIPASE / PHOSPHORUS / POTASSIUM / SODIUM / TOTAL BILIRUBIN / TOTAL PROTEIN / URIC ACID: tissue Plasma
[1] = 300 mg/kg, 72 h, dose level M1, time 3 day
[2] = 300 mg/kg, 120 h, dose level M1, time 5 day
[3] = 1100 mg/kg, 72 h, dose level High, time 3 day
[4] = 1100 mg/kg, 120 h, dose level High, time 5 day

## COc1ccc(/C=C/C(=O)Nc2ccccc2C(=O)O)cc1OC
[1]
  ABSOLUTE BASOPHIL: 0 CELLS/uL
  ABSOLUTE EOSINOPHIL: 0 CELLS/uL
  ABSOLUTE LYMPHOCYTE: 15435.67 CELLS/uL
  ABSOLUTE MONOCYTE: 65.33 CELLS/uL
  ABSOLUTE SEGMENTED NEUTROPHIL: 1499 CELLS/uL
  BASOPHIL: 0%
  EOSINOPHIL: 0%
  ERYTHROCYTE COUNT: 5.52 x10E6/uL
  HEMATOCRIT: 35.2%
  HEMOGLOBIN: 13.97 G/DL
  LEUKOCYTE COUNT: 17 x10E3/uL
  LYMPHOCYTE: 90.67%
  MEAN CORPUSCULAR HEMOGLOBIN: 25.3 pg
  MEAN CORPUSCULAR HEMOGLOBIN CONCENTRATION: 39.67 G/DL
  MEAN CORPUSCULAR VOLUME: 63.73 fL
  MONOCYTE: 0.33%
  NEUTROPHIL: 9%
  NUCLEATED RED BLOOD CELLS: 0 /100WBC
  PLATELET COUNT: 1287.67 x10E3/uL
  ALANINE AMINOTRANSFERASE: 54.67 u/L
  ALBUMIN: 4.27 G/DL
  ALKALINE PHOSPHATASE: 401.67 u/L
  ASPARTATE AMINOTRANSFERASE: 92.67 u/L
  BLOOD UREA NITROGEN: 14 mg/dL
  CARBON DIOXIDE: 24 mmol/L
  CHLORIDE: 103 MEQ/L
  CHOLESTEROL: 78.33 mg/dL
  CREATINE PHOSPHOKINASE: 294 u/L
  CREATININE: 0.15 mg/dL
  GLUCOSE: 150.67 mg/dL
  LACTATE DEHYDROGENASE: 445 u/L
  LIPASE: 9 u/L
  PHOSPHORUS: 13.6 mg/dL
  POTASSIUM: 6.91 MEQ/L
  SODIUM: 145.8 MEQ/L
  TOTAL BILIRUBIN: 0.17 mg/dL
  TOTAL PROTEIN: 6 G/DL
  URIC ACID: 1.4 mg/dL
[2]
  ABSOLUTE BASOPHIL: 0 CELLS/uL
  ABSOLUTE EOSINOPHIL: 240.33 CELLS/uL
  ABSOLUTE LYMPHOCYTE: 16960.67 CELLS/uL
  ABSOLUTE MONOCYTE: 310.67 CELLS/uL
  ABSOLUTE SEGMENTED NEUTROPHIL: 988.33 CELLS/uL
  BASOPHIL: 0%
  EOSINOPHIL: 1.33%
  ERYTHROCYTE COUNT: 5.25 x10E6/uL
  HEMATOCRIT: 33.97%
  HEMOGLOBIN: 13.6 G/DL
  LEUKOCYTE COUNT: 18.5 x10E3/uL
  LYMPHOCYTE: 91.67%
  MEAN CORPUSCULAR HEMOGLOBIN: 25.93 pg
  MEAN CORPUSCULAR HEMOGLOBIN CONCENTRATION: 40.07 G/DL
  MEAN CORPUSCULAR VOLUME: 64.73 fL
  MONOCYTE: 1.67%
  NEUTROPHIL: 5.33%
  NUCLEATED RED BLOOD CELLS: 0 /100WBC
  PLATELET COUNT: 1233.33 x10E3/uL
  ALANINE AMINOTRANSFERASE: 54.33 u/L
  ALBUMIN: 4.33 G/DL
  ALKALINE PHOSPHATASE: 383 u/L
  ASPARTATE AMINOTRANSFERASE: 84.33 u/L
  BLOOD UREA NITROGEN: 18 mg/dL
  CARBON DIOXIDE: 21 mmol/L
  CHLORIDE: 105 MEQ/L
  CHOLESTEROL: 63 mg/dL
  CREATINE PHOSPHOKINASE: 256.33 u/L
  CREATININE: 0.21 mg/dL
  GLUCOSE: 156.33 mg/dL
  LACTATE DEHYDROGENASE: 285 u/L
  LIPASE: 8 u/L
  PHOSPHORUS: 11.8 mg/dL
  POTASSIUM: 6.72 MEQ/L
  SODIUM: 146.17 MEQ/L
  TOTAL BILIRUBIN: 0.2 mg/dL
  TOTAL PROTEIN: 5.93 G/DL
  URIC ACID: 1.3 mg/dL
[3]
  ABSOLUTE BASOPHIL: 0 CELLS/uL
  ABSOLUTE EOSINOPHIL: 138 CELLS/uL
  ABSOLUTE LYMPHOCYTE: 17593 CELLS/uL
  ABSOLUTE MONOCYTE: 218.33 CELLS/uL
  ABSOLUTE SEGMENTED NEUTROPHIL: 4950.67 CELLS/uL
  BASOPHIL: 0%
  EOSINOPHIL: 0.67%
  ERYTHROCYTE COUNT: 5.25 x10E6/uL
  HEMATOCRIT: 33.23%
  HEMOGLOBIN: 12.93 G/DL
  LEUKOCYTE COUNT: 22.9 x10E3/uL
  LYMPHOCYTE: 77%
  MEAN CORPUSCULAR HEMOGLOBIN: 24.77 pg
  MEAN CORPUSCULAR HEMOGLOBIN CONCENTRATION: 38.97 G/DL
  MEAN CORPUSCULAR VOLUME: 63.5 fL
  MONOCYTE: 1%
  NEUTROPHIL: 21.33%
  NUCLEATED RED BLOOD CELLS: 0 /100WBC
  PLATELET COUNT: 1488 x10E3/uL
  ALANINE AMINOTRANSFERASE: 95 u/L
  ALBUMIN: 4.4 G/DL
  ALKALINE PHOSPHATASE: 368 u/L
  ASPARTATE AMINOTRANSFERASE: 112.67 u/L
  BLOOD UREA NITROGEN: 18.33 mg/dL
  CARBON DIOXIDE: 19.33 mmol/L
  CHLORIDE: 104 MEQ/L
  CHOLESTEROL: 47.33 mg/dL
  CREATINE PHOSPHOKINASE: 547 u/L
  CREATININE: 0.11 mg/dL
  GLUCOSE: 149.67 mg/dL
  LACTATE DEHYDROGENASE: 794 u/L
  LIPASE: 10 u/L
  PHOSPHORUS: 12 mg/dL
  POTASSIUM: 5.56 MEQ/L
  SODIUM: 142.2 MEQ/L
  TOTAL BILIRUBIN: 0.27 mg/dL
  TOTAL PROTEIN: 5.77 G/DL
  URIC ACID: 1.67 mg/dL
[4]
  ABSOLUTE BASOPHIL: 0 CELLS/uL
  ABSOLUTE EOSINOPHIL: 0 CELLS/uL
  ABSOLUTE LYMPHOCYTE: 8740 CELLS/uL
  ABSOLUTE MONOCYTE: 0 CELLS/uL
  ABSOLUTE SEGMENTED NEUTROPHIL: 2760 CELLS/uL
  BASOPHIL: 0%
  EOSINOPHIL: 0%
  ERYTHROCYTE COUNT: 5.33 x10E6/uL
  HEMATOCRIT: 31.3%
  HEMOGLOBIN: 12.1 G/DL
  LEUKOCYTE COUNT: 11.5 x10E3/uL
  LYMPHOCYTE: 76%
  MEAN CORPUSCULAR HEMOGLOBIN: 22.7 pg
  MEAN CORPUSCULAR HEMOGLOBIN CONCENTRATION: 38.7 G/DL
  MEAN CORPUSCULAR VOLUME: 58.8 fL
  MONOCYTE: 0%
  NEUTROPHIL: 24%
  NUCLEATED RED BLOOD CELLS: 2 /100WBC
  PLATELET COUNT: 1853 x10E3/uL
  ALANINE AMINOTRANSFERASE: 113 u/L
  ALBUMIN: 4.4 G/DL
  ALKALINE PHOSPHATASE: 238 u/L
  ASPARTATE AMINOTRANSFERASE: 86 u/L
  BLOOD UREA NITROGEN: 17 mg/dL
  CARBON DIOXIDE: 22 mmol/L
  CHLORIDE: 102 MEQ/L
  CHOLESTEROL: 58 mg/dL
  CREATINE PHOSPHOKINASE: 287 u/L
  CREATININE: 0.1 mg/dL
  GLUCOSE: 153 mg/dL
  LACTATE DEHYDROGENASE: 188 u/L
  LIPASE: 9 u/L
  PHOSPHORUS: 14.8 mg/dL
  POTASSIUM: 5.92 MEQ/L
  SODIUM: 141.9 MEQ/L
  TOTAL BILIRUBIN: 0.2 mg/dL
  TOTAL PROTEIN: 5.6 G/DL
  URIC ACID: 2.1 mg/dL
